# Assay results as given in US12404332B2, “Methods for diagnosing and treating cancers” (Research Development Foundation, priority 2020, dated 2025).
# Entries after “also recorded” stand apart in the source; their conditions may differ.
# What was measured:
# PD-L1 in ID8agg cells = test: PD-L1 mRNA (RT-qPCR) in ID8agg cells; type: cell-based, mouse
# Method: FIGS. 39A-C: CAMB reduces PD-L1 through ubiquitination. FIG. 39A, RT-qPCR for PD-L1 mRNA in OVCAR5 and ID8agg cells treated with (+) or without (−) chlorambucil for 48 hours. (n=4). FIG. 39B, Western blot for PD-L1 protein in OVCAR5 cells with (+) or without (−) MG132 for 6 or 20 hours. (upper panel). PD-L1 expression in OVCAR5 cells treated with chlorambucil 48 hours and/or MG132 for 6 hours (lower panel). FIG. 39C, Ubiquitinated PD-L1 was immunoprecipitated (IP) and subjected to Western blot analysis with anti-ubiquitin (Ub) antibody. Cells were treated with chlorambucil for indicated times prior to ubiquitination analysis.
# Quantitative Real-Time Reverse Transcriptase Polymerase Chain Reaction: Total RNA was isolated from homogenized whole lung tissue with Trizol reagent (Invitrogen) according to manufacturer instructions. Subsequently, cDNA was synthesized with 1-2 μg of total RNA using the, SuperScript III reverse transcriptase (Invitrogen). Quantitative PCR (qPCR) was conducted using the Bio-Rad Real-Time PCR System (Applied Biosystems), amplified with transcript-specific primers with SYBR Green (Thermo Scientific), according to manufacturer instructions. Mouse primers were: Tyr, 5′-[…]-3′ (SEQ ID NO: 1) and 5′-[…]-3′ (SEQ ID NO: 2); gp100, 5′-[…]-3′ (SEQ ID NO: 3) and 5′-ID NO: 4); Trp-2, 5′-[…]-3′ (SEQ […]-3′ (SEQ ID NO: 5) and 5′-[…] […]
# ID8agg tumors = type: in vivo, mouse
# Description: Mice and in vivo treatments: Wild-type (WT) C57BL/6 mice NSG were purchased from Jackson Labs (Bar Harbor, ME), bred in our animal facility and used at 7-20 weeks old. All mice were given ad libitum water and food and housed under specific pathogen-free conditions. Mice used here were matched for sex and age in each experiment. 1×10^5 control or PD-L1^KOB16 cells were given subcutaneously (SQ, both sexes). 4×10^6 control or PD-L1^lo ID8agg cells in log growth phase were given intraperitoneally (females only). B16 tumor growth was measured with Vernier calipers and volume was calculated as (length×width^2)/2. Intraperitoneal ID8agg tumor growth was determined by IVIS Lumina Imaging System (Perkin Elmer; Waltham, MA) 15 minutes after i.p. injection of 3 mg of PBS-dissolved d-luciferin K+ (Gold Biotechnology; St. Louis, MO) with 30 second exposures, medium binning, and F/stop=1. Identical regions of interest were drawn over each subject's abdomen and average radiance (photons/see/cm2/sr) was quantified with Living Image software version 4.2. Body weight was measured every week for PD-L1^lo ID8agg mice as a surrogate for tumor growth, and tumors were weighed at end-experiment in confirmation. Survival was determined as >1500 mm^3 for SQ tumors and distress or >20% mouse weight gain for PD-L1^lo ID8agg tumors. Intraperitoneal injection of chlorambucil was given at indicated doses (optimized for each tumor and treatment condition in preliminary assessments not shown) for 3 treatment cycles starting 7 days after tumor cell challenge. Each chlorambucil cycle was 5 consecutive days of a single injection followed by two days of rest. αPD-L1 (clone 10F.9G2) or respective isotype control was injected intraperitoneally at 100 μg/mouse every 5 days starting on day 7 after tumor challenge for times indicated.
# ID8agg cells = test: Tumor-initiating cell (TIC) flow cytometry, ID8agg cells; type: cell-based, mouse
# mTORC1 = test: Western blots for mTORC1 pathway and LC3 autophagy; type: cell-based
# Method: (§1) FIGS. 40A-C: CAMB suppresses mTORC1 signals and reduces TIC numbers. FIG. 40A, Western blots for proteins in the mTORC1 pathway. Cells were treated with chlorambucil as indicated concentration for 48 hours. FIG. 40B, Western blot for LC3I/II to assess autophagy in cell lysates treated±chlorambucil at indicated concentrations. FIG. 40C, Percent of ALDH^hi TIC by flow cytometry of ES2 cells cultured±chlorambucil. Percent CD44^+CD24^+ ID8agg TIC and CD44^+CD133^+CD24^+ B16 TIC detected by flow cytometry.
# Western blotting and immunoprecipitation: To prepare whole cell lysates, cells were harvested and lysed in RIPA (radioimmunoprecipitation assay) buffer plus 1 mM phenylmethylsulphonyl fluoride and Halt protease/phosphatase inhibitor cocktail (Thermo Scientific) at 4° C. Protein concentrations were measured by BCA Protein Assay Kit (Thermo Scientific). Protein was run on precast 4-15% sodium dodecyl sulfate polyacrylamide gels (Bio-Rad), transferred to polyvinylidene fluoride membranes (GE Water and Process Technologies), and then blocked in 5% non-fat milk for 1 hour at room temperature. The membranes were then incubated with 1:1000 diluted primary antibodies against indicated proteins (Cell Signaling). Specific antibody binding was detected by chemiluminescence using Western Lightening Plus regent (Perkin Elmer). Cells for (co) immunoprecipitation experiments were seeded in 15-cm dishes and cultured as described, using 6 million cells per immunoprecipitation reaction. For protein ubiquitination, cells were lysed in denaturing buffer (50 mM Tris-HCl, 0.5 mM EDTA and 1% SDS) followed by heating at 95° C. for 10 minutes and then quenched with 9 volumes of quenching buffer (0.5% Triton X-100, 20 mM Tris-HCl (pH 8.0), 137 mM NaCl, 10% glycerol, 2 mM EDTA). Protease inhibitor cocktail (Roche) was added fresh to all buffers. Cell lysates were incubated on a rotator for 30 minutes at 4° C., and then centrifuged at 20,000 g for 15 minutes at 4° C. Supernatants were subsequently incubated with anti-PD-L1 antibody overnight and processed using Dynabeads Protein G for Immunoprecipitation (Thermo Fisher Scientific). The final eluate was processed and Western blotting was performed.
# ES2 cells = test: Tumor-initiating cell (TIC) flow cytometry, ES2 cells; type: cell-based, human
# Method: as §1
# Flow cytometry: Mice were sacrificed by cervical dislocation after induction of deep isoflurane anesthesia. ID8agg tumors were collected and cells were stained as described (Derup et al., 2020) using LSR II hardware and analyzed by FACS Diva (BD Bioscience) or Flow Jo software (Flow Jo, LLC). Anti-mouse (clone 10F.9G2) and human (clone 29E.2A3) PD-L1 [both PE/Cy7, Cat #124314 (mouse) 329718 (human)] were matched with isotype control. Apoptosis assessment used Annexin V and propidium iodide (Thermo Scientific) per manufacturer instruction.
smiles,measurement,setting,value
O=C(O)CCCc1ccc(N(CCCl)CCCl)cc1 [chlorambucil],PD-L1 mRNA,PD-L1 in ID8agg cells,significantly reduced
same,sensitization of ID8agg to αPD-L1,ID8agg tumors; CAMB dose ineffective as a single agent,sensitized ID8agg to αPD-L1
same,tumor PD-L1 in vivo,"ID8agg tumors; ID8agg challenge, ascites",reduced tumor PD-L1 in ascites
same,PD-L1^lo ID8agg growth,"ID8agg tumors; WT mice, dose and schedule as for ID8agg",unable to suppress
same,single agent efficacy at the dose used for the combination,"ID8agg tumors; mouse, in vivo",ineffective as a single agent
same,treatment of tumors,"ID8agg tumors; severely immunodeficient NSG mice, ID8agg",effectively treated both
same,mouse survival,"ID8agg tumors; wild type mice, ID8agg",prolonged mouse survival
same,tumor volume,"ID8agg tumors; wild type mice, ID8agg",significantly reduced tumor volume
same,CD44^+CD133^+CD24^+ TIC population,ID8agg cells,significantly reduced
same,autophagy,mTORC1,promote autophagy
same,mTORC1 signals,mTORC1,suppress mTORC1 signals; also recorded: inhibits mTORC1 signaling
same,LC3 lipidation (LC3 I and II),mTORC1; Western blot,increased LC3 lipidation
same,phosphorylation of P70S6K and 4EBP1,mTORC1; Western blot,reduced phosphorylation of P70S6K and 4EBP1 in a dose-dependent manner
same,ALDH^hi TIC population,ES2 cells,significantly reduced
